In paper PMC12485664, “Interaction of class III cellobiose dehydrogenase with lytic polysaccharide monooxygenase” (FEBS Open Bio, 2025):

Tests used:
[1] = tested on: T1, FsCDH (class III cellobiose dehydrogenase); test: DCIP reduction, plate reader, Michaelis-Menten fit; format: biochemical, Fusarium solani; settings: 0.3 mM DCIP, 50 mM potassium phosphate pH 6.0
T1 construct: gene CDH; flavocytochrome with cytochrome and dehydrogenase domains; recombinant secreted in Komagataella phaffii, FPLC purified
Excerpt: DCIP reduction, plate reader, Michaelis-Menten fit on FsCDH (class III cellobiose dehydrogenase)

NcAA9C (NcLPMO9C) = target: T2, NcAA9C (NcLPMO9C) (Neurospora crassa, UniProt Q7SHI8); test: batch conversion, RDE H2O2 consumption, HPAEC-PAD and MALDI-TOF-MS of products; format: biochemical; settings: H2O2 cosubstrate, 5 mM ascorbic acid, 30 mM sodium acetate pH 5.0, 100 mM KCl
T2 construct: gene gh61-3; recombinant secreted in Komagataella phaffii, FPLC purified; copper enzyme, C4-acting
T2 sequence (Q7SHI8 17-359): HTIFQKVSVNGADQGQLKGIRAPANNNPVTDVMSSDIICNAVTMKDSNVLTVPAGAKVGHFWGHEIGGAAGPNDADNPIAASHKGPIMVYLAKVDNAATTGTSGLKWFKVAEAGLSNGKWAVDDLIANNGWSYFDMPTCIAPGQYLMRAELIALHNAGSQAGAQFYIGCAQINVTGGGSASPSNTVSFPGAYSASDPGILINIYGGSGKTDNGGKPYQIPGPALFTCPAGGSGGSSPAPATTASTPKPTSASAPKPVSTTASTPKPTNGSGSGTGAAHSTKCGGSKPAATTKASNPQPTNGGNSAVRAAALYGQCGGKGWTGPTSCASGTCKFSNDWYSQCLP

| Compound | Km [1] | further results |
| --- | --- | --- |
| OC[C@H]1OC(O)[C@H](O)[C@@H](O)[C@@H]1O[C@@H]1O[C@H](CO)C(O)(O)[C@H](O)[C@H]1O (stereo partly shown) [Glc4gemGlc] |  | Km ([1]; sample not treated with β-glucosidase, 1 to 100 μM): 30.6 ± 8.3 µM |
| OC[C@H]1O[C@@H](O[C@H]2[C@H](O)[C@@H](O)C(O)O[C@@H]2CO)[C@H](O)[C@@H](O)[C@@H]1O (stereo partly shown) [cellobiose] | 21.4 ± 3 µM |  |
| OC[C@H]1O[C@@H](O[C@H]2[C@H](O)[C@@H](O)[C@H](O[C@H]3[C@H](O)[C@@H](O)C(O)O[C@@H]3CO)O[C@@H]2CO)[C@H](O)[C@@H](O)[C@@H]1O (stereo partly shown) [cellotriose] | 16.1 ± 2.9 µM |  |
| OC[C@H]1O[C@@H](O[C@H]2[C@H](O)[C@@H](O)[C@H](O[C@H]3[C@H](O)[C@@H](O)[C@H](O[C@H]4[C@H](O)[C@@H](O)[C@H](O[C@H]5[C@H](O)[C@@H](O)C(O)O[C@@H]5CO)O[C@@H]4CO)O[C@@H]3CO)O[C@@H]2CO)[C@H](O)[C@@H](O)[C@@H]1O (stereo partly shown) [cellopentaose] |  | batch conversion, RDE H2O2 consumption, HPAEC-PAD and MALDI-TOF-MS of products (NcAA9C (NcLPMO9C)): a batch reaction employing NcAA9C, H2O2 as cosubstrate |
